The text below walks through data of PubChem BioAssay AID493126 (Sanford-Burnham Center for Chemical Genomics, 2011).

The source made the active and inactive calls. No rule for the calls is given here.

The target of the experiment is Alkaline phosphatase, germ cell type (Homo sapiens) (UniProt P10696). The experiment is described as follows: PLAP enzyme activity modulators, SAR follow-up, selectivity assay for human IAP activator project, biochemical (AID 493126). To be noted: purified PLAP enzyme, counter-screen.
Chain of Alkaline phosphatase, germ cell type (Homo sapiens) (P10696 whole entry, looked up): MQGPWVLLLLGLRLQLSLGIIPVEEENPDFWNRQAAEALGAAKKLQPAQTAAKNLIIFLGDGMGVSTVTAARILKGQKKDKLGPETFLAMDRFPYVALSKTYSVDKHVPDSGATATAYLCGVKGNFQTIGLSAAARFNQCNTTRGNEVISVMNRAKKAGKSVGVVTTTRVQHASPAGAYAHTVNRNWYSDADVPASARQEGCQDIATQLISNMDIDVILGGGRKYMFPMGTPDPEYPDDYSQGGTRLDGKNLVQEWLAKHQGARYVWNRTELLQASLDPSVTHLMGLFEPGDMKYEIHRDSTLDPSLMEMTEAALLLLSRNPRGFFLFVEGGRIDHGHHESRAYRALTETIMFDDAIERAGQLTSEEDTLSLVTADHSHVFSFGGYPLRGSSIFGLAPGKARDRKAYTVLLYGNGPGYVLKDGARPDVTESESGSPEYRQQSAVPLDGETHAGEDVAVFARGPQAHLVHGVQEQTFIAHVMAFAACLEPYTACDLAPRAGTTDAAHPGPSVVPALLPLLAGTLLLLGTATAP

With `COc1ccc(-c2cc(C(=O)NN=Cc3c(O)ccc4ccccc34)[nH]n2)cc1`, the IC50 (inhibition of PLAP activity) is > 100 µM (inactive). Turning to `CC(=O)Nc1ccc(/C=N/NC(=O)C(=O)N/N=C/c2ccc(NC(C)=O)cc2)cc1`, the IC50 (inhibition of PLAP activity) is > 100 µM (inactive).

Turning to `O=C(N/N=C/c1c(O)ccc2ccccc12)c1cc(-c2cccs2)[nH]n1`, the IC50 (inhibition of PLAP activity) was 31.8 µM. Under `Cc1cc(C(=O)NN=Cc2cccc([N+](=O)[O-])c2O)n[nH]1` stands > 100 µM (inactive); under `COc1ccc(/C=N/NC(=O)C(=O)N/N=C/c2ccc(OC)c(OC)c2)cc1OC`, > 100 µM (inactive); under `CCN(CC)c1ccc(/C=N/NC(=O)C(=O)N/N=C/c2ccc(N(CC)CC)cc2O)c(O)c1`, > 100 µM (inactive). With `Cc1cc(C(=O)N/N=C\c2cc(C(C)(C)C)ccc2O)n[nH]1` the figure was 7.02 µM; with `CC(C)Oc1ccccc1/C=N/NC(=O)C(=O)N/N=C/c1ccccc1OC(C)C`, 52.3 µM. Under `Cn1cccc1-c1cc(C(=O)NN=Cc2cc(Br)ccc2O)[nH]n1` stands 9.66 µM.

Turning to `Cc1cc(C(=O)N/N=C/c2cc(Br)ccc2O)n[nH]1`, the IC50 (inhibition of PLAP activity) was 10.3 µM. Regarding `CC(C)C(=O)NC(=S)Nc1ccccc1C(=O)Nc1ccccc1`, the IC50 (inhibition of PLAP activity) was 9.56 µM. With `O=C(CCN1C(=O)/C(=C/c2ccccc2Cl)SC1=S)NNC(=O)c1ccccc1O`, the IC50 (inhibition of PLAP activity) was 23.7 µM.

For `O=C(NNC(=S)NC(=O)c1ccccc1[N+](=O)[O-])c1ccccc1O`, the IC50 (inhibition of PLAP activity) was 15 µM. `CC1C(=O)NN=C1C(=O)NN=Cc1ccc(O)cc1O` (stereo unspecified): the IC50 (inhibition of PLAP activity) is 10.3 µM.

With `Cc1ccc(-c2cc(C(=O)NN=Cc3ccccc3O)n[nH]2)o1`, the IC50 (inhibition of PLAP activity) was 6.41 µM. With `O=C(N/N=C/c1ccccc1O)c1cc(C2CC2)[nH]n1` the figure was 8.62 µM. Turning to `O=C1Nc2ccc(Br)cc2C12NNc1ccccc1O2` (stereo unspecified), the IC50 (inhibition of PLAP activity) is 0.87 µM. With `COc1cccc(C=NNC(=O)C(=O)NN=Cc2cccc(OC)c2O)c1O` the figure was 8.61 µM; with `O=C(NN=Cc1ccccc1)C(=O)NN=Cc1ccccc1`, 32.9 µM; with `O=C(N/N=C/c1ccc2c(c1)OCO2)C(=O)N/N=C/c1ccc2c(c1)OCO2`, > 100 µM (inactive). Under `O=C(N/N=C/c1ccccc1C(=O)O)C(=O)N/N=C/c1ccccc1C(=O)O` stands 58.1 µM. With `COc1cc(OC)cc(C(=O)NNC(=O)c2nn(C)c(=O)c3ccccc23)c1` the figure was 9.49 µM; with `O=C(N/N=C/c1ccc(O)cc1)C(=O)N/N=C/c1ccc(O)cc1`, > 100 µM (inactive). Regarding `CCOc1cc(/C=N/NC(=O)C(=O)N/N=C/c2ccc(O)c(OCC)c2)ccc1O`, the IC50 (inhibition of PLAP activity) was > 100 µM (inactive).

Turning to `N#CCOc1ccccc1/C=N/NC(=O)C(=O)N/N=C/c1ccccc1OCC#N`, the IC50 (inhibition of PLAP activity) was > 100 µM (inactive). Under `O=C(NN=Cc1c(O)ccc2ccccc12)c1[nH]ncc1Br` stands > 100 µM (inactive); under `COc1ccc(-c2csc(Nc3cccc4ccccc34)n2)cc1F`, > 100 µM (inactive). Under `OC(c1nc2ccc(F)cc2[nH]1)C(O)c1nc2ccc(F)cc2[nH]1` (stereo unspecified) stands 6.83 µM; under `CC(=O)Nc1cccc(C(=O)NNC(=O)c2n[nH]c(=O)c3ccccc23)c1`, 10.2 µM; under `C/C(=N\NC(=O)c1cc(C)[nH]n1)c1ccc2ccccc2c1O`, 8.16 µM. With `Cc1cc(C(=O)NN=Cc2cc(Cl)cc([N+](=O)[O-])c2O)n[nH]1` the figure was > 100 µM (inactive); with `CCCCOc1ccc(/C=N/NC(=O)C(=O)N/N=C/c2ccc(OCCCC)cc2)cc1`, > 100 µM (inactive); with `COC(=O)c1ccc(/C=N/NC(=O)C(=O)N/N=C/c2ccc(C(=O)OC)cc2)cc1`, > 100 µM (inactive). Turning to `O=C(N/N=C/c1c(O)ccc2ccccc12)C(=O)N/N=C/c1c(O)ccc2ccccc12`, the IC50 (inhibition of PLAP activity) is > 100 µM (inactive). Under `CN(C)c1ccc(/C=N/NC(=O)C(=O)N/N=C/c2ccc(N(C)C)cc2)cc1` stands > 100 µM (inactive). With `COc1cc(OC)c(OC)cc1/C=N/NC(=O)C(=O)N/N=C/c1cc(OC)c(OC)cc1OC` the figure was > 100 µM (inactive). As for `C/C(=N\NC(=O)c1[nH]nc2c1CCc1ccccc1-2)c1ccccc1O`, the IC50 (inhibition of PLAP activity) is 7.57 µM. Take `COc1cc(/C=N\NC(=O)C(=O)N/N=C/c2cc(OC)c(O)c(OC)c2)cc(OC)c1O`: the IC50 (inhibition of PLAP activity) was > 100 µM (inactive).

Consider `O=C(N/N=C/c1ccccc1O)c1n[nH]c2c1CCC2`, for which the IC50 (inhibition of PLAP activity) was 8.33 µM. With `O=C(NN=Cc1ccc(O)cc1O)C(=O)NN=Cc1ccc(O)cc1O` the figure was > 100 µM (inactive); with `COc1cccc(C=NNC(=O)c2cc(-c3cccn3C)n[nH]2)c1O`, 8.67 µM.

Consider `Cc1ccc(O)c(C=NNC(=O)c2[nH]ncc2Br)c1`, for which the IC50 (inhibition of PLAP activity) is 14.6 µM. With `O=C(N/N=C/c1cc(Br)ccc1O)c1cc(C2CC2)[nH]n1` the figure was 11.5 µM; with `O=C(NC(=S)NNC(=O)c1ccccc1O)c1ccc(F)cc1`, 11 µM; with `O=C(N/N=C\c1ccc2c(c1)OCO2)C(=O)N/N=C/c1ccc2c(c1)OCO2`, > 100 µM (inactive).

On to `O=C(N/N=C\c1cccc(O)c1)C(=O)N/N=C/c1cccc(O)c1`, for which the IC50 (inhibition of PLAP activity) is 56.1 µM. Under `CC(=NNC(=O)C(=O)NN=C(C)c1cccc(O)c1)c1cccc(O)c1` stands > 100 µM (inactive).

For `CCOc1cccc(C=NNC(=O)c2cc(C3CC3)[nH]n2)c1O`, the IC50 (inhibition of PLAP activity) was 7.02 µM. Regarding `COc1cc(/C=N/NC(=O)C(=O)N/N=C/c2ccc(O)c(OC)c2)ccc1O`, the IC50 (inhibition of PLAP activity) is 46.8 µM. With `COc1cccc(C=NNC(=O)C(=O)NN=Cc2cccc(OC)c2OC)c1OC` the figure was 28.7 µM. Under `CCOc1cccc(C=NNC(=O)c2cc(-c3cccn3C)n[nH]2)c1O` stands 9.86 µM. For the compound `COc1cccc(C=NNC(=O)C2=NNC(=O)C2C)c1O` (stereo unspecified), the IC50 (inhibition of PLAP activity) is 8.02 µM.

Turning to `COc1ccc(OC)c(/C=N/NC(=O)C(=O)N/N=C/c2cc(OC)ccc2OC)c1`, the IC50 (inhibition of PLAP activity) is 53.2 µM.

`COc1cc(/C=N/NC(=O)C(=O)N/N=C/c2cc(OC)c(OC)c(OC)c2)cc(OC)c1OC`: the IC50 (inhibition of PLAP activity) is > 100 µM (inactive).

Regarding `COc1cccc(C=NNC(=O)c2[nH]nc3c2CCc2ccccc2-3)c1O`, the IC50 (inhibition of PLAP activity) was 12.1 µM.

Consider `O=C(N/N=C/c1cc(Br)ccc1O)C(=O)N/N=C/c1cc(Br)ccc1O`, for which the IC50 (inhibition of PLAP activity) was > 100 µM (inactive).
